{"source": "patent US20220175768A1", "about": "“FGFR TYROSINE KINASE INHIBITORS FOR THE TREATMENT OF UROTHELIAL CARCINOMA” (Janssen Pharmaceutica NV, priority 2019, published 2022)", "key": {"[1]": {"conditions": "study in which nine of 10 patients had disease progression with prior immunotherapy; cited from earlier work"}, "urothelial cancer": {"tested_on": "urothelial cancer", "assay": "Best response to prior therapy before study enrolment per investigator assessment", "format": "in vivo, human", "conditions": "first-line, across all regimens", "from_the_text": "Across all regimens, 184 patients had received first-line platinum-based chemotherapy, 83 had received second-line chemotherapy, and 24 had received third-line chemotherapy before study enrolment."}}}
{"compound": "COCc1c(-c2cc3cc(C)cc(OC)c3s2)c2c(N)ncnn2c1CN1CCNC(=O)C1", "note": "[rogaratinib]", "values": [{"measurement": "Patients who responded to rogaratinib", "setting": "[1]", "result": 30, "unit": "%"}]}
{"compound": "gemcitabine plus cisplatin", "values": [{"measurement": "Best ORR per investigator assessment to prior chemotherapy", "setting": "urothelial cancer", "result": 35, "unit": "%"}]}
